# Measurements reported in BindingDB's records for doi:10.1021/acs.jmedchem.1c00726 (University of Florida, 2021).
# Molecular target: 5-hydroxytryptamine receptor 2B (Homo sapiens, UniProt P41595)
# Assay: Displacement of [3H]LSD from human recombinant 5-HT2B receptor expressed in CHO cells by radioligand completion assay relative to control
# Chain of 5-hydroxytryptamine receptor 2B (P41595 whole entry): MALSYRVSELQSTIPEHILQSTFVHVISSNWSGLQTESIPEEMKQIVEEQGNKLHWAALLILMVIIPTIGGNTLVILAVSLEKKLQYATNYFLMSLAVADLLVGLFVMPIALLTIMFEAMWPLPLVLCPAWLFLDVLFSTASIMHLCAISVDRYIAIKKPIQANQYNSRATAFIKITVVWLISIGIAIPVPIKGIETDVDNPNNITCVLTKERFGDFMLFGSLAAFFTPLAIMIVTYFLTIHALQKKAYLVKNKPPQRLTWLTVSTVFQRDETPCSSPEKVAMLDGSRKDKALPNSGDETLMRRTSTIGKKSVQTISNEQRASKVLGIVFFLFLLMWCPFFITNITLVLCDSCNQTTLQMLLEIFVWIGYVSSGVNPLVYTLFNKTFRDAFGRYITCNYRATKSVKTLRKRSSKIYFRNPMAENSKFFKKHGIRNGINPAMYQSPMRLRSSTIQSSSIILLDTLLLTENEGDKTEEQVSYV
compound,measurement,value
"COc1cc(C[C@@H](C)N)c(OC)cc1I [(R)-2-(4-iodo-2,5-dimethoxyphenyl)-1-methylethylamine]",Ki,2.2 nM
